Here are results for six molecules from patent US10207991B2, “Isoindoline compositions and methods for treating neurodegenerative disease” (priority 2014, dated 2019).

Entries after “also recorded” stand apart in the source; their conditions may differ.

The test system of data set [1] is caspase-3 activation in tumor cells. Conditions: cited from earlier work.
Data set [2] deals with caspase-3 activation in neurons. Conditions: cited from earlier work.
In data set [3] the test system is neurons. Conditions: 24 hours; cited from earlier work.
Data set [4] has as its system MDA-MB-435 or MDA-MB231 or SKOV-3 cells. Description: Tumor cell viability (MTS) assay. It is filed as cell-based. The method, then: The cytotoxicity of test compounds is determined using the CellTiter96 Aqueous One Solution Assay (Promega, Madison, Wis.). Briefly, MDA-MB-435 or MDA-MB231 or SKOV-3 cells were seeded in a 96-well plate at a density of 2000 cells/well on the day prior to treatment with sigma-2 receptor selective ligands. […] The plate is read at 490 nm in a Victor3 plate reader (PerkinElmer Life and Analytical Sciences, Shelton, Conn.). The EC^50 value, defined as the concentration of the sigma ligand required to inhibit cell viability by 50% relative to untreated cells, is determined from the dose response curve for each cell line. Siramesine is accepted as an agonist.

The target in data set [5] is Sigma-2 receptor (Rattus norvegicus (Rat), UniProt Q5U3Y7). Description: Sigma-2 receptor competitive radioligand binding assay. The conditions noted are these: read-out: Sigma-2 Receptor Affinity, Ki.
Sigma-2 receptor, sequence (Q5U3Y7 whole entry): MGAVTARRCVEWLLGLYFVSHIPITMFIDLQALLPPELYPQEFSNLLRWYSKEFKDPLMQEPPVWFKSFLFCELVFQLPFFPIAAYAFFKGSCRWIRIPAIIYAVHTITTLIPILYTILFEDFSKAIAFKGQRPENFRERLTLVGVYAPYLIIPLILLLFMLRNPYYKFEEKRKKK
Experimental: Radioligand binding assays for Sigma-1 receptors and Sigma-2 receptors were carried out by a commercial contract research organization. For Sigma-1 binding, various concentrations of test compounds from 100 μM to 1 nM were used to displace 8 nM [^3H](+)pentazocine from endogenous receptors on Jurkat cell membranes (Ganapathy M E et al. 1991, J Pharmacol. Exp. Ther. 289:251-260). 10 μM Haloperidol was used to define non-specific binding. For Sigma-2 receptors various concentrations of test compounds from 100 μM to 1 nM were used to displace 5 nM [^3H] […] (Bowen W D, et al. 1993, Mol. Neuropharmcol 3:117-126). 10 μM Haloperidol was used to define non-specific binding. […] Radioactivity on the dried filter discs was measured using a liquid scintillation analyzer (Tri-Carb 2900TR; PerkinElmer Life and Analytical Sciences). The displacement curves were plotted and the Ki values of the test ligands for the receptor subtypes were determined using GraphPad Prism (GraphPad Software Inc., San Diego, Calif.). The percentage specific binding was determined by dividing the difference between total bound (disintegrations per minute) and nonspecific bound (disintegrations per minute) by the total bound (disintegrations per minute).
The affinity of candidate sigma-2 ligand compounds at sigma-1 and sigma-2 receptors was also determined by displacement of different known labeled sigma-2 or sigma-1 ligands. […]
Data set [6] is described as follows: Mouse liver microsome (MLM) stability. It is filed as in vitro ADME. On the procedure:
A first pharmacokinetic study was performed in microsomes of mice mouse liver microsomes, MLM) by a commercial contract research organization. The studies were performed according to Obach, R. S et al. (1997) J. Pharmacol. Exp. Ther., 283: 46-58, which is incorporated herein by reference.

On to `COc1cc2c(cc1OC)CN(CCCCNC(=O)c1cc(C)ccc1OC)CC2` [RHM-1, N-[4-(3,4-dihydro-6,7-dimethoxyisoquinolin-2(1H)-yl)butyl]-2-methoxy-5-methylbenzamide], for which, in data set [1], the caspase-3 activation result is recorded as “do not induce caspase-3 activity” and the “inhibition of caspase-3 activation” value is reported as “inhibits the activation”. For the same molecule, in data set [2], the “block of caspase-3 activation by agonist SV-119” value is listed as “not able to block activation” and the caspase-3 activation entry is “do not induce caspase-3 activity”. The “nuclear morphology / nuclear intensity compared to vehicle” value in data set [3] was “do not decrease nuclear intensity”.
With `COc1ccc(C)cc1NC(=O)OC1C[C@H]2CCC[C@@H](C1)N2CCCCCCN` (stereo partly drawn) [SV-119], the caspase-3 activation result in data set [1] and in data set [2] was “activate caspase-3” in each case. Besides, the Action entry in data set [4] is recorded as “Full agonist (If the EC50s of a sigma-2 ligand test compound is less than 2 fold of EC50 of siramesine, this sigma-2 ligand test compound is considered as an agonist)”. Also, the “nuclear morphology / nuclear intensity compared to vehicle” value in data set [3] was “cause significant abnormal nuclear morphology”.
Consider `Fc1ccc(-n2cc(CCCCN3CCC4(CC3)OCc3ccccc34)c3ccccc32)cc1` [Siramesine], for which the caspase-3 activation result in data set [1] is recorded as “activate caspase-3; also recorded: induces caspase-3 activity”; in data set [2], “activate caspase-3”. For the same molecule, the “nuclear morphology / nuclear intensity compared to vehicle” value in data set [3] is “cause significant abnormal nuclear morphology”.
On to `CC(C)(C)Oc1cc(CCC(C)(C)N2Cc3cccc(C(=O)O)c3C2)ccc1O` [compound 75], for which the Ki in data set [5] is > 10 µM.
As to `CN1CCN(C(=O)c2cccc3c2CN(C(C)(C)CCc2ccc(O)c(OC(F)(F)F)c2)C3)CC1` [compound 93], the “Mouse liver microsomes, MLM t½” value in data set [6] is on record as 5 min.
In the case of `CC(C)(CCc1ccc(O)c(OC(F)(F)F)c1)N1Cc2cccc(C(=O)N3CCOCC3)c2C1` [compound 94], the “Mouse liver microsomes, MLM t½” value in data set [6] is on record as 14 min.
